Data published in the NIST ThermoML archive (doi:10.1016/j.jct.2018.02.022).

Assay: xn = mol fraction of the nth substance listed
Conditions: 303.15 K, 92.3 kPa, Liquid; for viscosity: Concentric cylinders viscometry; for speed of sound: Frequency=3 MHz, Single path-length method; for mass density: Vibrating tube method

OCC(O)CO [glycerol] + O
Conditions | mass density [kg/m3] | speed of sound [m/s] | viscosity [mPa·s]
x1 = 0.011 | 1008.02 | 1529.5 | –
x1 = 0.021 | 1018.65 | 1548 | –
x1 = 0.0302 | 1027.91 | 1564.3 | –
x1 = 0.0398 | 1037.12 | 1580.8 | –
x1 = 0.0546 | 1050.34 | 1604.4 | –
x1 = 0.0651 | 1058.89 | 1620.4 | –
x1 = 0.0721 | 1064.55 | 1630.6 | –
x1 = 0.0793 | 1069.8 | 1640.5 | –
x1 = 0.0898 | 1077.46 | 1654.6 | –
x1 = 0.0998 | 1084.34 | 1667.4 | 2.405
x1 = 0.1198 | 1096.94 | 1690.6 | –
x1 = 0.1549 | 1116.57 | 1726.2 | 3.932
x1 = 0.2024 | 1138.25 | 1764 | –
x1 = 0.2534 | 1157.11 | 1794.9 | 8.807
x1 = 0.2959 | 1170.15 | 1814.7 | 12.34
x1 = 0.3504 | 1184.07 | 1834.3 | 18.45
x1 = 0.4006 | 1194.81 | 1848 | 26.45
x1 = 0.4477 | 1203.34 | 1857.9 | 36.01
x1 = 0.4983 | 1211.29 | 1866.4 | 49.18
x1 = 0.5471 | 1218.12 | 1872.9 | 65.39
x1 = 0.6046 | 1224.8 | 1878.8 | 91.76
x1 = 0.6469 | 1229.27 | 1882.3 | 116.57
x1 = 0.7006 | 1234.31 | 1886 | 154.03
x1 = 0.7465 | 1238.26 | 1888.8 | 196.75
x1 = 0.7942 | 1241.97 | 1891.5 | 245.24
x1 = 0.8497 | 1245.72 | 1894.1 | 314.35
x1 = 0.8993 | 1248.75 | 1895.6 | 391.29
x1 = 0.9196 | 1250 | 1896.7 | –
x1 = 0.9322 | 1250.72 | 1896.9 | –
x1 = 0.9462 | 1251.51 | 1897.2 | 477.66
x1 = 0.9562 | 1252.03 | 1897.8 | –
x1 = 0.9855 | 1253.69 | 1898.9 | –
x1 = 1 | 1254.48 | 1899.6 | 593.09
